Laboratory results reported in patent US11180462B2, “Microbiocidal oxadiazole derivatives” (SYNGENTA PARTICIPATIONS AG, priority 2015, dated 2021).

Columns and labels:
[1] = system: Puccinia recondita f. Sp. Tritici; assay: Fungicidal activity against Puccinia recondita f. sp. tritici / wheat / leaf disc preventative (brown rust); type: in vivo; settings: foliar, 200 ppm in the applied formulation, wheat leaf segments, preventative, compared to untreated control leaf disks, read-out: disease control
Outline: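 200 ppm spray on wheat cv. Kanzler leaf segments; spore inoculation +1 day; 19° C., 75% rh, 12 h/12 h light cycle; single rating of % control vs untreated at 7 to 9 days.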

[2] = system: Puccinia recondita f. Sp. Tritici; assay: Fungicidal activity against Puccinia recondita f. sp. tritici / wheat / leaf disc curative (brown rust); type: in vivo; settings: foliar, 24 h, 200 ppm in the applied formulation, wheat leaf segments, curative (applied 1 day after inoculation), compared to untreated control leaf disks, read-out: disease control
Outline: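 Scoring is percent disease control relative to untreated segments, made 6 to 8 days after treatment. Wheat (cv. Kanzler) leaf segments received the formulated, water-diluted compound one day post-inoculation with spores, having been kept dark at 19° C and 75% RH, then incubated under 12 h light/12 h dark at the same temperature and humidity.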

[3] = system: Glomerella lagenarium (Colletotrichum lagenarium); assay: Fungicidal activity against Glomerella lagenarium (Colletotrichum lagenarium) liquid culture / cucumber / preventative (anthracnose); type: cell-based; settings: Colletotrichum orbiculare; 20 ppm in the applied formulation; liquid culture (PDB), growth inhibition measured photometrically after 3 to 4 days; compared to untreated control; read-out: disease control
Outline: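 Percent activity against the untreated check was derived from photometric growth measurements made 2 to 7 days after conidia in potato dextrose broth were combined with compound at 20 ppm. Cultures were kept dark at 24 °C and 96% humidity.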

CC1(C(=O)N(Cc2ccc(-c3noc(C(F)(F)F)n3)cc2)CC2CCCO2)COC1 (stereo not drawn) [Compound 1.438, 3-methyl-N-(tetrahydrofuran-2-ylmethyl)-N-[[4-[5-(trifluoromethyl)-1,2,4-oxadiazol-3-yl]phenyl)methyl]-oxetane-3-carboxamide]
≥ 80%: pest or weed control at 200 ppm [1] | pest or weed control at 200 ppm [2] | inhibition of growth at 20 ppm [3]

CN(Cc1ccc(-c2noc(C(F)(F)F)n2)cc1)C(=O)N1CCCO1 [Compound 3.69, N-methyl-N-[[4-[5-(trifluoromethyl)-1,2,4-oxadiazol-3-yl]phenyl]methyl]-isoxazolidine-2-carboxamide]
≥ 80%: pest or weed control at 200 ppm [1] | pest or weed control at 200 ppm [2] | inhibition of growth at 20 ppm [3]

CN(Cc1ccc(-c2noc(C(F)(F)F)n2)cc1)C(=O)N(C)C1CC1 [Compound 3.72, 1-cyclopropyl-1,3-dimethyl-3-[[4-[5-(trifluoromethyl)-1,2,4-oxadiazol-3-yl]phenyl]methyl]urea]
≥ 80%: pest or weed control at 200 ppm [1] | pest or weed control at 200 ppm [2] | inhibition of growth at 20 ppm [3]

O=C(C1CCCCO1)N(Cc1ccc(-c2noc(C(F)(F)F)n2)cc1)CC1CCCO1 (stereo not drawn) [Compound 1.411, N-(tetrahydrofuran-2-ylmethyl)-N-[[4-[5-(trifluoromethyl)-1,2,4-oxadiazol-3-yl]phenyl]methyl]-tetrahydropyran-2-carboxamide]
≥ 80%: pest or weed control at 200 ppm [1] | pest or weed control at 200 ppm [2] | inhibition of growth at 20 ppm [3]

CC#CC(=O)N(CCOC)Cc1ccc(-c2noc(C(F)(F)F)n2)cc1 [Compound 1.323, N-(2-methoxyethyl)-N-[[4-[5-(trifluoromethyl)-1,2,4-oxadiazol-3-yl]phenyl]methyl]but-2-yaamide]
≥ 80%: pest or weed control at 200 ppm [1] | pest or weed control at 200 ppm [2] | inhibition of growth at 20 ppm [3]

CCCN(C)C(=O)N(C)Cc1ccc(-c2noc(C(F)(F)F)n2)cc1 [Compound 3.75, 1,3-dimethyl-1-propyl-3-[[4-[5-(trifluoromethyl)-1,2,4-oxadiazol-3-yl]phenyl]methyl]urea]
≥ 80%: pest or weed control at 200 ppm [1] | pest or weed control at 200 ppm [2] | inhibition of growth at 20 ppm [3]

C=C(C)C(=O)N(Cc1ccc(-c2noc(C(F)(F)F)n2)cc1)CC1CCCO1 (stereo not drawn) [Compound 1.433, 2-methyl-N-(tetrahydrofuran-2-ylmethyl)-N-[[4-[5-(trifluoromethyl)-1,2,4-oxadiazol-3-yl]phenyl]methyl]-prop-2-enamide]
≥ 80%: pest or weed control at 200 ppm [1] | pest or weed control at 200 ppm [2] | inhibition of growth at 20 ppm [3]

CCN(C(=O)N(C)Cc1ccc(-c2noc(C(F)(F)F)n2)cc1)C1CC1 [Compound 3.71, 1-cyclopropyl-1-ethyl-3-methyl-3-[[4-[5-(trifluoromethyl)-1,2,4-oxadiazol-3-yl]phenyl]methyl]urea]
≥ 80%: pest or weed control at 200 ppm [1] | pest or weed control at 200 ppm [2] | inhibition of growth at 20 ppm [3]

C#CCN(C)C(=O)N(C)Cc1ccc(-c2noc(C(F)(F)F)n2)cc1 [Compound 3.77, 1,3-dimethyl-1-prop-2-ynyl-3-[[4-[5-(trifluoromethyl)-1,2,4-oxadiazol-3-yl]phenyl]methyl]urea]
≥ 80%: pest or weed control at 200 ppm [1] | pest or weed control at 200 ppm [2] | inhibition of growth at 20 ppm [3]

CCC(C)N(Cc1ccc(-c2noc(C(F)(F)F)n2)cc1)C(=O)C1CCCN1C(C)=O (stereo not drawn) [Compound 1.400, 1-acetyl-N-sec-butyl-N-[[4-[5-(trifluoromethyl)-1,2,4-oxadiazol-3-yl]phenyl]methyl]-pyrrolidine-2-carboxamide]
≥ 80%: pest or weed control at 200 ppm [1] | pest or weed control at 200 ppm [2] | inhibition of growth at 20 ppm [3]

O=C(C1CC1)N(Cc1ccc(-c2noc(C(F)(F)F)n2)cc1)Cc1ccco1 [Compound 1.474, N-(2-furylmethyl)-N-[[4-[5-(trifluoromethyl)-1,2,4-oxadiazol-3-yl]phenyl]methyl]-cyclopropane-carboxamide]
≥ 80%: pest or weed control at 200 ppm [1] | pest or weed control at 200 ppm [2] | inhibition of growth at 20 ppm [3]

CCOC(=O)CNC(=O)N(Cc1ccc(-c2noc(C(F)(F)F)n2)cc1)OC [Compound 3.49, ethyl 2-[[methoxy-[[4-[5-(trifluoromethyl)-1,2,4-oxadiazol-3-yl]phenyl]methyl]-carbamoyl]-amino]acetate]
≥ 80%: pest or weed control at 200 ppm [1] | pest or weed control at 200 ppm [2] | inhibition of growth at 20 ppm [3]

COCC(=O)N(Cc1ccc(-c2noc(C(F)(F)F)n2)cc1)Cc1ccco1 [Compound 1.459, N-(2-furylmethyl)-2-methoxy-N-[[4-[5-(trifluoromethyl)-1,2,4-oxadiazol-3-yl]phenyl]methyl]-acetamide]
≥ 80%: pest or weed control at 200 ppm [1] | pest or weed control at 200 ppm [2] | inhibition of growth at 20 ppm [3]

CCN(Cc1ccc(-c2noc(C(F)(F)F)n2)cc1)C(=O)N(C)C1CC1 [Compound 3.90, 1-cyclopropyl-3-ethyl-1-methyl-3-[[4-[5-(trifluoromethyl)-1,2,4-oxadiazol-3-yl]phenyl]methyl]urea]
≥ 80%: pest or weed control at 200 ppm [1] | pest or weed control at 200 ppm [2] | inhibition of growth at 20 ppm [3]

CCCC(=O)N(Cc1ccc(-c2noc(C(F)(F)F)n2)cc1)C(C)CC (stereo not drawn) [Compound 1.373, N-sec-butyl-N-[[4-[5-(trifluoromethyl)-1,2,4-oxadiazol-3-yl]phenyl]methyl]-butanamide]
≥ 80%: pest or weed control at 200 ppm [1] | pest or weed control at 200 ppm [2] | inhibition of growth at 20 ppm [3]

CCCCC(=O)N(CCOC)Cc1ccc(-c2noc(C(F)(F)F)n2)cc1 [Compound 1.366, N-(2-methoxyethyl)-N-[[4-[5-(trifluoromethyl)-1,2,4-oxadiazol-3-yl]phenyl]methyl]-pentanamide]
≥ 80%: pest or weed control at 200 ppm [1] | pest or weed control at 200 ppm [2] | inhibition of growth at 20 ppm [3]

CC1(C(=O)N(Cc2ccc(-c3noc(C(F)(F)F)n3)cc2)CC2CCCO2)CC1 (stereo not drawn) [Compound 1.431, 1-methyl-N-(tetrahydrofuran-2-ylmethyl)-N-[[4-[5-(trifluoromethyl)-1,2,4-oxadiazol-3-yl]phenyl]methyl]-cyclopropane-carboxamide]
≥ 80%: pest or weed control at 200 ppm [1] | pest or weed control at 200 ppm [2] | inhibition of growth at 20 ppm [3]

CCN(Cc1ccc(-c2noc(C(F)(F)F)n2)cc1)C(=O)N(C)C1(COC)CC1 [Compound 3.95, 1-ethyl-3-[1-(methoxymethyl)-cyclopropyl]-3-methyl-1-[[4-[5-(trifluoromethyl)-1,2,4-oxadiazol-3-yl]phenyl]methyl]urea]
≥ 80%: pest or weed control at 200 ppm [1] | pest or weed control at 200 ppm [2] | inhibition of growth at 20 ppm [3]

C#CCN(Cc1ccc(-c2noc(C(F)(F)F)n2)cc1)C(=O)C1(C(F)(F)F)CCC1 [Compound 1.161, N-prop-2-ynyl-1-(trifluoromethyl)-N-[[4-[5-(trifluoromethyl)-1,2,4-oxadiazol-3-yl]phenyl]methyl]-cyclobutane-carboxamide]
≥ 80%: pest or weed control at 200 ppm [1] | pest or weed control at 200 ppm [2] | inhibition of growth at 20 ppm [3]

CCC(C)N(Cc1ccc(-c2noc(C(F)(F)F)n2)cc1)C(=O)C1CC1 (stereo not drawn) [Compound 1.406, N-sec-butyl-N-[[4-[5-(trifluoromethyl)-1,2,4-oxadiazol-3-yl]phenyl]methyl]-cyclopropane-carboxamide]
≥ 80%: pest or weed control at 200 ppm [1] | pest or weed control at 200 ppm [2] | inhibition of growth at 20 ppm [3]
